Data as given in patent publication US10829798B2, “DNA-linked enzyme-coupled assays” (THE REGENTS OF THE UNIVERSITY OF CALIFORNIA, priority 2014, dated 2020).

Target: T1, OleD (Streptomyces antibioticus, UniProt Q53685, P55A/R82V/R83E/T84P)
T1 construct: made in house; host or cells: PURExpress In Vitro Protein Synthesis Kit (NEB E6800L), cell-free transcription/translation, linear DNA with T7 promoter
Assay: DLEnCA with purified recombinant OleD, agarose gel readout of MfeI digestion of probe DNA
Type: biochemical
Settings: purified OleD 0.5 μM, acceptor 0.5 mM, 2% agarose gel
Description: FIG. 2A-FIG. 2D. DNA-Linked Enzyme-Coupled Assay using purified model enzyme (OleD). A. The OleD-catalyzed glucosylation of kaempferol using UDP-Glc as a donor-molecule. B. Purified recombinant OleD (0.5 μM) was incubated with probe DNA (4.5 nM) in the presence of kaempferol (0.5 mM) and various concentrations of UDP-Glc at 37° C. for 1 hour. Following incubation with TbGT, DNA was digested with MfeI. Digests were analyzed on a 2% agarose gel. […] (ii) A representative gel of the UDP-Glc titration reaction, as-well-as a “ladder” depicting expected DNA digestion sizes, is shown. C. […] Digests were analyzed on a 2% agarose gel (n=4). […] Digests were analyzed on a 2% agarose gel (n=4). […]
In order to verify that DNA protection using TbGT could be used to follow an enzymatic reaction under conditions amenable to downstream DNA analyses, the ability of recombinant OleD to reduce concentrations of UDP-Glc while in the presence of the substrate kaempferol was first tested. […] To identify if this reaction could be monitored by modification of DNA, recombinant OleD was purified (FIG. 5) and incubated with 5-hm-cytosine-modified probe DNA (4.5 nM probe DNA containing 2.5 μM modified 5-hm-cytosines), kaempferol (0.5 mM), and UDP-Glc concentrations varying from 10 μM to 1 mM in a buffered solution. […]

T1 sequence (Q53685 other isoform, or with tags, fused parts or gaps P55A/R82V/R83E/T84P): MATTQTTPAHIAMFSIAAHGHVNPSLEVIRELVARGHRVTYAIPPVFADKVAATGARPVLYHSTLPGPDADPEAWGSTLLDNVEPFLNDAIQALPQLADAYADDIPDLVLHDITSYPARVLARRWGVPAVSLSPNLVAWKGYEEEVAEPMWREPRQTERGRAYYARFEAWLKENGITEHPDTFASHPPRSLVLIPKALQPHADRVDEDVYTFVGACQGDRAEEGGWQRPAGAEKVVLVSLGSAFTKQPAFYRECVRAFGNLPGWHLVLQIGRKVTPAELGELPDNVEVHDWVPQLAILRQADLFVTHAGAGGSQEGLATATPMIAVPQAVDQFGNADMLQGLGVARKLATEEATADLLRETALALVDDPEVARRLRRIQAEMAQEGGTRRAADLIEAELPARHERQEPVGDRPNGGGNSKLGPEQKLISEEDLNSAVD

O=c1c(O)c(-c2ccc(O)cc2)oc2cc(O)cc(O)c12 [I, kaempferol]
digestion of probe DNA by MfeI (loss of TbGT protection) (20 μM starting UDP-Glc, all components present): significant DNA digestion occurred

O=C(O)c1ccc(O)cc1 [XI, 4-hydroxybenzoic acid]
digestion of probe DNA by MfeI (loss of TbGT protection) (UDP-Glc titration): no DNA was digested
